Measured values as given in patent US11976083B2, “Inhibitors of peptidylarginine deiminases” (Gilead Sciences, Inc., priority 2020, dated 2024).

Molecular target: T1, human PAD4 (Homo sapiens, UniProt Q9UM07)
T1 construct: human PAD4 (NM_012387), A2-P663, was PCR amplified; His-SUMO (N, cleaved yes); made in house; host or cells: E. coli BL21(DE3)
Assay: In vitro PAD4 BAEE biochemical assay
Details: BAEE substrate 3 mM, 5 nM PAD4, 2 mM calcium chloride; geometric mean of multiple experiments
How it was run: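 Assay was run at 25 °C using 3 mM BAEE and 5 nM human PAD4 after a 30 min compound preincubation; ammonia produced over 2 h was quantified by OPA-derived fluorescence. Full inhibition was defined by 50 µM BB-Cl-Amidine, and IC50 came from variable-slope nonlinear regression.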

T1 sequence (Q9UM07 2-663): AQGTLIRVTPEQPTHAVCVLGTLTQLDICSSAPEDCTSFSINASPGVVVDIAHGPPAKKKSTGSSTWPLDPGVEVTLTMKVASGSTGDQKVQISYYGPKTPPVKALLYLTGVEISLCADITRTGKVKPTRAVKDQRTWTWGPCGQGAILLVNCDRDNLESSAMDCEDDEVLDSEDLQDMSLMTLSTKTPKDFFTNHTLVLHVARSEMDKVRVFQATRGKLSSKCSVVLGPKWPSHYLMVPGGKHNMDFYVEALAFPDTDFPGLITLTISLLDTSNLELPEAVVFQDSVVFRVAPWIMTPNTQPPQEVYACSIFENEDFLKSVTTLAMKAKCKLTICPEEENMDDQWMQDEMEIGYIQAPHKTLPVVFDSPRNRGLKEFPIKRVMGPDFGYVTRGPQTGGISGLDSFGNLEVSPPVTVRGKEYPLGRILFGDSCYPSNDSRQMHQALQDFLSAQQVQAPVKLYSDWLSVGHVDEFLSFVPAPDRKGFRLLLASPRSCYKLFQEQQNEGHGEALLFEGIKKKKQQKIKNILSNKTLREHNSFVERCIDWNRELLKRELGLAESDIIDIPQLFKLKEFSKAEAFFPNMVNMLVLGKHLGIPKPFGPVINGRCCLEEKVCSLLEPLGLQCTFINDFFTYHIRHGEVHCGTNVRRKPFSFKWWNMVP

| SMILES | IC50 [nM] |
| --- | --- |
| COc1cc(C(=O)N2CC[C@@H](OC)[C@@H](N)C2)cc2nc(-c3cc4ccc5nc4n3CC(F)(F)CCCCC3(CC3)C(=O)N[C@@H]5C)n(C)c12 [Example 823, (11~{R})-17-[5-[(3~ {S},4~{R})-3-amino-4-methoxy-piperidine-1-carbonyl]-7-methoxy-1-methyl-benzimidazol-2-yl]-3,3-difluoro-11-methyl-spiro[1,10,19-triazatricyclo[10.5.2.0^ {15,18}]nonadeca-12 (19),13,15(18),16-tetraene-8,1′-cyclopropane]-9-one] | 146 |
| COc1cc(C(=O)N2CC[C@@H](OC(F)F)[C@@H](N)C2)cc2nc(-c3cc4ccc5nc4n3CCCCCc3nc4ccccc4nc3C(=O)N[C@@H]5C)n(C)c12 [Example 824, (2~{R})-21-[5-[(3~{S},4~{R})-3-amino-4-(difluoromethoxy)piperidine-1-carbonyl]-7-methoxy-1-methyl-benzimidazol-2-yl]-2-methyl-3,6,13,20,26-pentazapentacyclo [18.5.2.0^{5,14).0^{7, 12}.0^{23,27}]heptacosa-1(26),5,7(12),8,10,13,21, 23(27),24-nonaen-4-one] | 43 |
| COc1cc(C(=O)N2CC[C@@H](OC)[C@@H](N)C2)cc2nc(-c3cc4ccc5nc4n3CCCCCc3ccnc(F)c3C(=O)N[C@@H]5C)n(C)c12 [Example 825, (2~{R})-17-[5-[(3~{S},4~ {R})-3-amino-4-methoxy-piperidine-1-carbonyl]-7-methoxy-1-methyl-benzimidazol-2-yl]-6-fluoro-2-methyl-3,7,16,22-tetrazatetracyclo[14.5.2.0^ {5,10}.0^{19,23}]tricosa-1(21),5,7,9,17,19,22-heptaen-4-one] | 38 |
| C[C@H]1NC(=O)[C@@H]2C[C@H]2CCCCCn2c(-c3nc4cc(C(=O)N[C@H]5CNCC[C@@H]5F)c(F)cc4n3[C@H]3C[C@H]3F)cc3ccc1nc32 [Example 826, 6-fluoro-1-[(1~{S},2~{R})-2-fluorocyclopropyl]-~{N}-[(3~{S),4~{S})-4-fluoro-3-piperidyl]-2-[(2~{R},5~{R},7~ {R})-2-methyl-4-oxo-3,13,19-triazatetracyclo [11.5.2.0^{5,7}.0^{16,20}]icosa-1(19),14,16(20),17-tetraen-14-yl]benzimidazole-5-carboxamide] | 31 |
| CO[C@@H]1CCN(C(=O)c2cc3nc(-c4cc5ccc6nc5n4CCCCC[C@@H]4C[C@H]4C(=O)N[C@@H]6C)n([C@H]4C[C@H]4F)c3cc2F)C[C@@H]1N [Example 827, (2~{R},5~{R},7~{R})-14-[5-[(3~{S},4~{R})-3-amino-4-methoxy-piperidine-1-carbonyl]-6-fluoro-1-[(1~{S},2~{R})-2-fluorocyclopropyl]benzimidazol-2-yl]-2-methyl-3,13,19-triazatetracyclo[11.5.2.0^ {5,7}.0^{16,20}]icosa-1(19),14,16(20),17-tetraen-4-one] | 36 |
| CO[C@@H]1CCN(C(=O)c2cc(F)c3c(c2)nc(-c2cc4ccc5nc4n2CCCCCc2nc4ccccc4nc2C(=O)N[C@@H]5C)n3C2CC2)C[C@@H]1N [Example 828, (2~{R})-21-[5-[(3~{S), 4~{R})-3-amino-4-methoxy-piperidine-1-carbonyl]-1-cyclopropyl-7-fluoro-benzimidazol-2-yl]-2-methyl-3,6,13,20,26-pentazapentacyclo [18.5.2.0^{5,14}.0^{7, 12}.0^{23,27}]heptacosa-1(26),5(14),6,8,10,12,21,23(27), 24-nonaen-4-one] | 24 |
| CO[C@@H]1CCN(C(=O)c2cc(F)c3c(c2)nc(-c2cc4ccc5nc4n2CCCCCc2nc4ccccc4cc2C(=O)N[C@@H]5C)n3C2CC2)C[C@@H]1N [Example 829, (2~{R})-21-[5-[(3~{S},4~ {R})-3-amino-4-methoxy-piperidine-1-carbonyl]-1-cyclopropyl-7-fluoro-benzimidazol-2-yl]-2-methyl-3,13,20,26-tetrazapentacyclo [18.5.2.0^{5,14}.0^{7,1 2}.0^{23,27}]heptacosa-1(26),5(14),6,8,10,12,21,23(27), 24-nonaen-4-one] | 15 |
| C[C@@H]1[C@H](N)CCCN1C(=O)c1cc(F)c2c(c1)nc(-c1cc3ccc4nc3n1CCCCCc1nc3ccccc3cc1C(=O)N[C@@H]4C)n2C1CC1 [Example 830, (2~{R})-21-[5-[(2~{R}, 3~{R})-3-amino-2-methyl-piperidine-1-carbonyl]-1-cyclopropyl-7-fluoro-benzimidazol-2-yl]-2-methyl-3,13,20,26-tetrazapentacyclo[18.5.2.0^ {5,14}.0^{7,12}.0^ {23,27}]heptacosa-1(26),5(14),6,8,10,12,21, 23(27),24-nonaen-4-one] | 19 |
| COc1cc(C(=O)N2CC[C@@H](OC)[C@@H](N)C2)cc2nc(-c3cc4ccc5nc4n3CCCCCc3nccc(Cl)c3C(=O)N[C@@H]5C)n(C)c12 [Example 831, (2~{R})-17-[5-[(3~{S}, 4~{R})-3-amino-4-methoxy-piperidine-1-carbonyl]-7-methoxy-1-methyl-benzimidazol-2-yl]-6-chloro-2-methyl-3,9,16,22-tetrazatetracyclo [14.5.2.0^{5,10}.0^{19,23}] tricosa-1(22),5(10),6,8, 17,19(23),20-heptaen-4-one] | 75 |
| C[C@@H]1c2ccc3cc(-c4nc5cc(C(=O)N6CCC[C@@H](N)[C@H]6C)cc(F)c5n4C4CC4)n(c3n2)CCCCCc2nc3ccccc3cc2C(=O)N1C [Example 832, (2~{R})-21-[5-[(2~{R},3~{R})-3-amino-2-methyl-piperidine-1-carbonyl]-1-cyclopropyl-7-fluoro-benzimidazol-2-yl]-2,3-dimethyl-3,13,20,26-tetrazapentacyclo[18.5.2.0^ {5,14}.0^{7,12}.0^ {23,27}]heptacosa-1(26), 5(14),6,8,10,12,21,23(27), 24-nonaen-4-one] | 13 |
| CO[C@@H]1CCN(C(=O)c2cc(F)c3c(c2)nc(-c2cc4ccc5nc4n2CCCCCc2nc4ccccc4cc2C(=O)N(C)[C@@H]5C)n3C2CC2)C[C@@H]1N [Example 833, (2~{R})-21-[5-[(3~{S},4~ {R})-3-amino-4-methoxy-piperidine-1-carbonyl]-1-cyclopropyl-7-fluoro-benzimidazol-2-yl]-2,3-dimethyl-3,13,20,26-tetrazapentacyclo[18.5.2.0^ {5,14).0^{7,12}.0^ {23,27}]heptacosa-1(26),5(14),6,8,10,12, 21,23(27),24-nonaen-4-one] | 61 |
| CO[C@@H]1CCN(C(=O)c2cc(F)c3c(c2)nc(-c2cc4ccc5nc4n2CC(F)(F)CCC[C@@H]2C[C@H]2C(=O)N[C@@H]5C)n3[C@H]2C[C@@H]2F)C[C@@H]1N [Example 834, (2~{R},5~{R},7~{R})-14-[5-[(3~{S),4~{R})-3-amino-4-methoxy-piperidine-1-carbonyl]-7-fluoro-1-[(1~{S},2~{S})-2-fluorocyclopropyl]benzimidazol-2-yl]-11,11-difluoro-2-methyl-3,13,19-triazatetracyclo [11.5.2.0^{5,7}.0^{16,20}] icosa-1(19),14,16(20), 17-tetraen-4-one] | 126 |
